Experimental data taken from patent US8288364B2, “Botanically derived composition and a process thereof” (Indus Biotech Private Limited, priority 2008, dated 2012).

Key:
[1] = Body weight in early stages of diabetes induced with alloxan; format: in vivo, Wistar rats; settings: alloxan-diabetic rats, test compound 60 mg/kg, pioglitazone 5 mg/kg; for Body weight, 0 day: day 0; for % Change in Body weight: day 0 to day 30, numbers are printed as INCREASE; for Body weight, 15 day: day 15; for Body weight, 30 day: day 30
Procedure: (§1) Male Wistar rats were injected with alloxan monohydrate (160 mg/kg i.p.) to induce diabetes. After 48 hours of injection blood glucose levels were determined using glucose estimation kits. Animals with blood glucose levels above 300 mg/dl were selected and divided into four groups of 6 rats in each group.
(§2) The animals were given respective drug solutions in stipulated dose, for 30 days. On the 0th, 15th and 30th day of treatment, the blood sugar levels and body weights were analyzed.
There was a significant decrease in body weight in diabetic group as compared to non diabetic group. In the test compound treated group the body weight on 0 day was 185.16 & 240.83 on 30 day. […] There was a 29% increase in weight in the animals treated with the test compound that was an excellent result when compared to the 9% decrease in body weight of the untreated diabetic animals. The below table provides the percentage change in body weight of groups treated with respective treatments.

[2] = test system: Diabetes Induced with Alloxan; experiment: Blood sugar levels in early stages of diabetes induced with alloxan; format: in vivo, Wistar rats; settings: alloxan-diabetic rats; for Blood sugar level, 0 day: day 0; for Blood sugar level, 0 day / Blood sugar level, 15 day / Blood sugar level, 30 day: doses: test compound 60 mg/kg, fenugreek seed powder 2 g/kg, crude alcohol extract 1 g/kg, pioglitazone 5 mg/kg; for Change in BSL (%): day 0 to day 30, numbers are printed as DECREASE, doses as in the row (60 mg/kg, 2 g/kg, 1 g/kg, 5 mg/kg); for Blood sugar level, 15 day: day 15 of treatment; for Blood sugar level, 30 day: day 30 of treatment
Procedure: as §1
Group 1: Non-Diabetic Control
Group 2: Diabetes Control
Group 3: Test Compound (60 mg/kg)
Group 4: Pioglitazone (Standard Drug) (5 mg/kg)
as §2
Serum was obtained by centrifuging the blood obtained by retero-orbital blood withdrawal at 7000 rpm at 4° C. for 15 min. The serum obtained was collected for Blood sugar level determinations. The below table provides data on blood glucose levels of various groups.

[3] = Levator ani muscle mass in alloxan-diabetic animals; format: in vivo, Wistar rats; settings: alloxan-diabetic animals on treatment, FIG. 8
Description: A subsequent study was done to evaluate the impact of the increase in weight on the muscle content of the animals.
The levitor ani muscles of these animals were checked for the drugs effect on muscle mass.

[4] = Double-blind, placebo-controlled clinical study: body composition (body fat) by bioelectric impedance and hydrostatic weighing; format: in vivo, human; settings: volunteers, 500 mg supplementation, 8 weeks, resistance training 4 times/week
Procedure: (§3) Subsequently, a double-blind, placebo-controlled study in 49 pre-trained volunteers was conducted to assess the safety and efficacy of the test compound. This 2 month study was conducted with supplementation of 500 mg of the test compound and the volunteers were on resistance training 4 times/week. During this study the effect of the test compound on body composition (fat content) and strength were evaluated.
Body density was analyzed by bioelectric impedance and hydrostatic weighing. Based on these parameters fat free mass was calculated. From the FIG. 5 it is concluded that during the study period of 8 weeks, the test product reduced the body fat by 12%. This is a significant reduction.

[5] = Double-blind, placebo-controlled clinical study: strength (isotonic bench and leg press); format: in vivo, human; settings: volunteers, 500 mg, 2 month study, weight lifted
Procedure: as §3
Since this product was used to increase muscle mass, the effect of the test compound on the strength of the volunteers was evaluated. This was done by conducting isotonic repetitions of bench and leg press exercises. An increase in strength was determined based on an increase in weight lifted during these two exercises.

3T3-L1 cells = experiment: Deoxy-D-Glucose, 2-(1-14C) uptake in 3T3-L1 cells (insulin-like action); format: cell-based
Procedure: This example studies the time and dose dependant uptake of Deoxy-D-Glucose, 2-(1-^14C) uptake in 3T3-L1 cells treated with the test compound. 3T3-L1 cells were cultured (DMEM+FBS) in a 24 well plate and were treated with a 5 μg/ml and a 50 μg/ml dose of the test compound for 10 or 30 min. Cells treated with 100 nM insulin was used as a positive control. Radioactivity (cpm) was measured with TopCount (Packard).

serum testosterone = experiment: Serum testosterone by radioimmunoassay in castrated immature rats after four weeks of treatment; format: in vivo, Wistar rats; settings: daily treatment, 35 mg/kg p.o., RIA
Procedure: In addition, to rule out any possibility of androgenic activity in the increase in body weight and muscle mass, the serum testosterone levels were measured.
Immature male Wistar rats weighing about 55 gm (±5gm) were selected for the study. These rats were anesthetized by anesthetic ether and castrated. After four weeks of treatment, the blood was withdrawn from the rats by retro orbital puncture method and analyzed for serum testosterone, which was measured with the help of radioimmunoassay (RIA) kit.

[6] = Body composition (anabolic/androgenic activity) in castrated immature rats, 4 weeks of treatment; format: in vivo, Wistar rats
Description: Immature male Wistar rats weighing about 55 gm (±5 gm) were selected for the study. These rats were anesthetized by anesthetic ether and castrated. After 4 weeks of treatment, animals were sacrificed and the seminal vesicles, the ventral prostate, and the muscle levator ani carefully dissected and weighed. Body weight of the animals was registered at the beginning and at the end of the experiment. Increase in weight of seminal vesicles and ventral prostate indicates androgenic activity, whereas increase in weight of levator ani muscles was considered to indicate anabolic activity.

Molecule	Body weight, 0 day [1] [gm]	% Change in Body weight [1]	Body weight, 15 day [1] [gm]	Body weight, 30 day [1] [gm]	Blood sugar level, 0 day [2] [mg/dL]	Change in BSL (%) [2]	Blood sugar level, 15 day [2] [mg/dL]	Blood sugar level, 30 day [2] [mg/dL]	other results
CCc1ccc(CCOc2ccc(CC3SC(=O)NC3=O)cc2)nc1 (centres unmarked) [Pioglitazone, reference compound]	165 ± 5.41	25% INCREASE	198.5 ± 6.45	207.83 ± 4.49	438.66 ± 6.37	35.8% DECREASE	376.33 ± 7.29	281 ± 5.92	
OCC1O[C@H](OCC2O[C@@H](O[C@@H]3C(CO[C@H]4OC(CO)[C@H](O)C(O)C4O)O[C@@H](O)C(O)C3O)C(O)C(O)[C@@H]2O)C(O)C(O)[C@H]1O (some centres unmarked) [test compound]	185.16	29%	215.83 ± 6.05	240.83	416.5 ± 14.42	55%	294.5 ± 12.22	187 ± 9.33	muscle mass (levitor ani muscles) [3]: significant increase; reduction of body fat [4]: 12%; increase in strength compared to placebo, bench press [5]: 100%; increase in strength compared to placebo, leg press [5]: 80%; glucose uptake (3T3-L1 cells; dose of 5 μg/ml, 10 or 30 min): enhanced glucose uptake; Body weight, 0 day ([1]; listed as Test Compound): 185.16 ± 6.53 gm; % Change in Body weight ([1]; listed as Test Compound): 29% INCREASE; Body weight, 30 day ([1]; listed as Test Compound): 240.83 ± 6.42 gm; Change in BSL (%) ([2]; listed as Test Compound): 55% DECREASE; total serum testosterone levels (serum testosterone): no significant increase; weight of the levator ani muscles (anabolic activity) ([6]; 4 weeks of treatment): significant increase; weights of organs of the male reproductive system (prostate, seminal vesicle and penis); androgenic activity ([6]; 4 weeks, 10 and 35 mg/kg): did not increase; change in body weight ([6]; four-week treatment, 10 mg/kg p.o): did not cause any change; body weight compared with control group ([6]; four-week treatment, 35 mg/kg p.o): significant rise
C[C@]12CC[C@H]3[C@@H](CCC4=CC(=O)CC[C@@]43C)[C@@H]1CC[C@@H]2O [testosterone, reference compound]									body weight compared with control group ([6]; four weeks, 10 mg s.c biweekly): significant rise
Insulin [reference compound]									stimulation of glucose uptake (3T3-L1 cells; 100 nM insulin, 10 min): 1.74 fold
